Measurements taken from PMC8056384 (ACS Chemical Biology, 2021).
pIC50, pKd: −log10 of the molar value. Values joined by “and” are separate entries in the source; they are usually repeats but may differ in a detail not shown here. Equal values may be shown once.

Assays:
[1] = target: T1, hGALK1 (Homo sapiens, UniProt P51570, E253A/K252A); test: Kinase-Glo luminescent hGALK1 activity assay; type: biochemical; parameters: Vmaxapp, substrate galactose, with ligand (+) / Kmapp, substrate galactose, with ligand (+): unit not given here; conditions: for Kmapp, substrate galactose, with ligand (+) / Vmaxapp, substrate galactose, with ligand (+): 35 µM ATP, maximum tested concentration: 1 mM T1, 15 mM fragment 3, 2 mM 11–13; for mode of inhibition with respect to galactose: 0–250 μM galactose, best-fit model in GraphPad Prism; for inhibition at 2000 µM: 2 mM compound; for Kinase-Glo LLEAT: calculated cumulatively over N1 and N2
T1 construct: A hGALK1 construct, encoding full-length protein harboring the surface entropy[41] mutations K252A:E253A; His6 (N); made in house; host or cells: E. coli BL21(DE3)
Experimental: hGALK1 activity in vitro was determined using the Kinase-Glo luminescent kinase assay (Promega), according to the manufacturer’s protocol. […] Following a 1-h RT incubation, 10 μL of Kinase-Glo Plus detection reagent was added (final assay volume: 20 μL/well), and after a further 20 minutes RT incubation, luminescence was detected using a Pherastar FSX plate reader (BMG Labtech) containing a luminescence optics module. […] All reactions were performed in technical triplicates for two different preparations of hGALK1.
Data were plotted using GraphPad Prism software; curve fitting was performed with a nonlinear least-squares regression fit to the mixed, competitive, noncompetitive, and uncompetitive inhibition models from the GraphPad Prism enzyme kinetics–inhibition equations and the best fit selected by comparison of Akaike’s Information Criterion (AICc) probability scores and extra sum-of-squares F test P values calculated by the software.

[2] = target: T1, hGALK1; test: Amplex Red fluorescence-based hGALK1 activity assay (coupled with galactose oxidase); type: biochemical; parameters: Vmaxapp, substrate ATP, with ligand (+) / Kmapp, substrate ATP, with ligand (+): unit not given here; conditions: for Kmapp, substrate ATP, with ligand (+) / Vmaxapp, substrate ATP, with ligand (+): 50 µM galactose, maximum tested concentration: 1 mM T1, 15 mM fragment 3, 2 mM 11–13; for mode of inhibition with respect to ATP: 0–250 μM ATP, best-fit model in GraphPad Prism; for inhibition at 2000 µM: 2 mM compound; for Amplex Red LLEAT: calculated cumulatively over N1 and N2
Text: Consequently, to confirm the mode of inhibition of the spiro-benzoxazole inhibitors with respect to ATP, we adopted the Amplex Red fluorescence-based assay[33],[34] by coupling the hGALK1 reaction with D. dendroides galactose oxidase (GAO; EC 1.1.3.9) to measure the level of galactose remaining after being depleted as a substrate for hGALK1. In this method, hydrogen peroxide generated by the oxidation of galactose by GAO is used by horseradish peroxidase to convert the nonfluorescent substrate Amplex Red into its highly fluorescent product resorufin; therefore, the resultant fluorescent signal is inversely proportional to hGALK1 enzyme activity. We optimized several parameters of this assay to allow measurement of hGALK1 activity for the first time (Figure S3; Supplementary Results).
The Amplex Red assay reagent contained horseradish peroxidase (EC 1.11.1.7, 0.2 U/mL), its substrate Amplex Red (10-acetyl-3,7-dihydroxyphenoxazine, 100 μM), and galactose oxidase (EC 1.1.3.9, 4 U/mL). The assay buffer used was the same as in the Kinase-Glo assay. […] Amplex Red reagent was added at a 1:1 volume to the hGALK1 reaction after 1-h incubation at RT. Fluorescence emission was measured at 585 nm, with excitation at 570 nm, after a further incubation period of 40 minutes, using a Pherastar FSX plate reader with a FI 540 590 optics module. Reactions were performed in technical triplicates for two biological replicates, and data were plotted and fitted as described for the Kinase-Glo assay except that the reaction rate, defined as total galactose consumed over the 1-h hGALK1 reaction, was determined using the following equation, where Fluorreaction = mean value of measured fluorescence of each reaction and Fluor50 = measured fluorescence with no galactose (i.e., fluorescence of 50 μM galactose): [drawing 2]

[3] = target: T2, hGALK2 (Homo sapiens, UniProt Q01415); test: Kinase-Glo hGALK2 activity assay; type: biochemical; conditions: 1 mM compound
T2 construct: Constructs encoding full-length hGALK2 (Met1-Ala458) and hMVK (Met1-Leu396); His6-Strep-Strep tag followed by TEV protease cleavage site (N); made in house; host or cells: E. coli BL21(DE3)
T2 sequence (Q01415 1-458): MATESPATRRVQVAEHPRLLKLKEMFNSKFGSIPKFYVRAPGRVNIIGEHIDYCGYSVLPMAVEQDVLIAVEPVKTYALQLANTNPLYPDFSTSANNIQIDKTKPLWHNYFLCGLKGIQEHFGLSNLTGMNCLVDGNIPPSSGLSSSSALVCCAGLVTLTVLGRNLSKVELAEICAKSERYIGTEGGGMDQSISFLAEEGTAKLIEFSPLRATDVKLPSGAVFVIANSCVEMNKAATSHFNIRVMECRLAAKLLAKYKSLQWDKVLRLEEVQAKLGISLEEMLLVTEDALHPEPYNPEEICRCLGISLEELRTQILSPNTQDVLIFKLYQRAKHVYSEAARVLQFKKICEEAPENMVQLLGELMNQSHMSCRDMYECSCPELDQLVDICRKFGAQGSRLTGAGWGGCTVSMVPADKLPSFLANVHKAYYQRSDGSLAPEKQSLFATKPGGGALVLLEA
Experimental: (§1) hGALK1 activity in vitro was determined using the Kinase-Glo luminescent kinase assay (Promega), according to the manufacturer’s protocol. […] Similarly, hGALK2 activity and inhibition was measured with reactions containing 50 nM hGALK2, 100 μM N-acetylgalactosamine, and 35 μM ATP in the above-described buffer and hMVK activity and inhibition was measured with reactions containing 250 nM hMVK, 100 μM mevalonate, and 35 μM ATP in the above-described buffer. Following a 1-h RT incubation, 10 μL of Kinase-Glo Plus detection reagent was added (final assay volume: 20 μL/well), and after a further 20 minutes RT incubation, luminescence was detected using a Pherastar FSX plate reader (BMG Labtech) containing a luminescence optics module. To determine the inhibition mode with respect to galactose, 10 nM hGALK1 and 35 μM ATP in an assay buffer was added to an array of six fragment (0–15 mM) or 12 compound (0–2 mM) concentrations against six galactose concentrations (0–250 μM), with a final reaction volume of 10 μL/well dispensed into 384-well assay plates (Greiner), and measured as described above. All reactions were performed in technical triplicates for two different preparations of hGALK1. Reaction rate, defined as total ATP consumed over the 1-h hGALK1 reaction, was determined using the following equation, where Lumreaction = mean value of measured luminescence of each reaction and Lum35 = measured luminescence with no galactose (i.e., luminescence of 35 μM ATP): [drawing 1]

[4] = target: T3, hMVK (Homo sapiens, UniProt Q03426); test: Kinase-Glo hMVK activity assay; type: biochemical; conditions: 1 mM compound
T3 construct: Constructs encoding full-length hGALK2 (Met1-Ala458) and hMVK (Met1-Leu396); His6-Strep-Strep tag followed by TEV protease cleavage site (N); made in house; host or cells: E. coli BL21(DE3)
Experimental: as §1

[5] = target: T1, hGALK1; test: Surface plasmon resonance (SPR) binding assay; conditions: hGALK1 immobilized on CM5 chip, analyte 0.195–200 μM, n = 1
Experimental: Purified hGALK1 (30 μg/mL), diluted in acetate buffer at pH 5, was attached via covalent coupling to a density of 13000 RU on a CM5 chip. The assay buffer was 50 mM sodium phosphate, pH 7.5, 200 mM NaCl, 0.5 mM TCEP, 5% DMSO, and 0.05% TWEEN20. A serial dilution (11 concentrations) was prepared in the above buffer for each analyte (3, 11–13) by 1:1 dilution from 200 μM to 0.195 μM, and the subsequent solutions were passed over the chip at a flow rate of 30 μL/min. Data are from an n = 1 experiment.

[6] = biological replicate N1, read-out: Kinase-Glo N1 IC50
[7] = biological replicate N2, read-out: Kinase-Glo N2 IC50
[8] = range over Kinase-Glo and Amplex Red assays
[9] = range over Kinase-Glo and Amplex Red assays, two biological replicates, read-out: IC50 values, range
[10] = biological replicate N1, read-out: Amplex Red N1 IC50
[11] = biological replicate N2, read-out: Amplex Red N2 IC50

T1 sequence (P51570 whole entry K252A/E253A, the tested form may be a part): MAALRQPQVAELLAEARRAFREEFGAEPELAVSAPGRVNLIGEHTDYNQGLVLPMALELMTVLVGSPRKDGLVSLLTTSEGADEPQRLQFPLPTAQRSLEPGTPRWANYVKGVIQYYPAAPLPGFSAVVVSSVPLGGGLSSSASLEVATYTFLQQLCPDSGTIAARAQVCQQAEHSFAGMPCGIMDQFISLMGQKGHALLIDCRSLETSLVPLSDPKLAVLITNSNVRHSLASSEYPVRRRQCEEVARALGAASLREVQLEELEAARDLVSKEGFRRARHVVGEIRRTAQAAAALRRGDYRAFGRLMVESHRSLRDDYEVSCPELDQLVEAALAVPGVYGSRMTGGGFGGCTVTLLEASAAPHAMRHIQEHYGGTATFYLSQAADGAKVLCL
T3 sequence (Q03426 whole entry): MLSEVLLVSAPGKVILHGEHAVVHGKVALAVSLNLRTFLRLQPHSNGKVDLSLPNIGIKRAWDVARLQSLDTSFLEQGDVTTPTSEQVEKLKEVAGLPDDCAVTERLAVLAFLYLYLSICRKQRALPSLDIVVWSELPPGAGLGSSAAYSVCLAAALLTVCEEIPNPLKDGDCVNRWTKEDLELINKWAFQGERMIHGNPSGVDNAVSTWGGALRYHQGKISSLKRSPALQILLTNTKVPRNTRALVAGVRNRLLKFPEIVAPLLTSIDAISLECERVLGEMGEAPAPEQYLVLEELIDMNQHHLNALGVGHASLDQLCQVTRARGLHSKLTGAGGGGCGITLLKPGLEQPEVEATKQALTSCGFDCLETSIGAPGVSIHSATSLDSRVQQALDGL

## O=C1CCCC2=C1C1(CCCC1)N=C(Nc1nc3ccccc3o1)N2 [T1, 2′-(benzo[d]oxazol-2-ylamino)-7′,8′-dihydro-1′H-spiro[cyclopentane-1,4′-quinazolin]-5′(6′H)-one, reference compound]
[1]
  Kmapp, substrate galactose, with ligand (+): 32.9 ± 1.0
  Vmaxapp, substrate galactose, with ligand (+): 4.1 ± 0.5
[2]
  Kmapp, substrate ATP, with ligand (+): 63.5 ± 2.6
  Vmaxapp, substrate ATP, with ligand (+): 27.9 ± 1.5

## O=C1CCCC2=C1C1(CCCCC1)N=C(Nc1nc3ccccc3o1)N2 [T2, 2′-(benzo[d]oxazol-2-ylamino)-7′,8′-dihydro-1′H-spiro[cyclohexane-1,4′-quinazolin]-5′(6′H)-one, reference compound]
[1]; 10 nM hGALK1, 100 μM galactose, 35 μM ATP, read-out: IC50
  pIC50: 4.77
[1]; 35 μM ATP
  mode of inhibition with respect to galactose: non-competitive
[2]; 50 μM galactose
  mode of inhibition with respect to ATP: competitive

## O=C(CNc1cnc2cc(Cl)c(Cl)cc2n1)NC1CC1 [compound 11]
[3]
  inhibition at 1000 µM: < 10%
[4]
  inhibition at 1000 µM: < 10%
[5]
  pKd: ~4.00 and 4.05
[1]; 35 μM ATP
  mode of inhibition with respect to galactose: noncompetitive
[1]
  Kmapp, substrate galactose, with ligand (+): 36.5 ± 2.1
  Vmaxapp, substrate galactose, with ligand (+): 3.7 ± 0.4
  inhibition at 2000 µM: > 50%
  Kinase-Glo LLEAT: 0.19 kcal/mol
[1]; [6]
  pIC50: 3.68
[1]; [7]
  pIC50: 3.94
[1]; [8]
  LLEAT (Astex ligand lipophilicity efficiency score), range: 0.19 to 0.22 kcal/mol
[1]; [9]
  pIC50: 3.68 to 4.51
[2]; 50 μM galactose
  mode of inhibition with respect to ATP: noncompetitive
[2]
  Kmapp, substrate ATP, with ligand (+): 36.5 ± 5.8
  Vmaxapp, substrate ATP, with ligand (+): 11.1 ± 0.9
  inhibition at 2000 µM: > 50%
  Amplex Red LLEAT: 0.22 kcal/mol
[2]; [10]
  pIC50: 4.51
[2]; [11]
  pIC50: 4.19

## COCCNC(=O)CNc1cnc2cc(Cl)c(Cl)cc2n1 [compound 12]
[3]
  inhibition at 1000 µM: < 10%
[4]
  inhibition at 1000 µM: < 10%
[5]
  pKd: ~4.00 and 4.01
[1]; 35 μM ATP
  mode of inhibition with respect to galactose: noncompetitive
[1]
  Kmapp, substrate galactose, with ligand (+): 41.5 ± 12.4
  Vmaxapp, substrate galactose, with ligand (+): 9.4 ± 1.1
  inhibition at 2000 µM: > 50%
  Kinase-Glo LLEAT: 0.23 kcal/mol
[1]; [6]
  pIC50: 3.70
[1]; [7]
  pIC50: 4.02
[1]; [8]
  LLEAT (Astex ligand lipophilicity efficiency score), range: 0.23 to 0.27 kcal/mol
[1]; [9]
  pIC50: 3.70 to 4.60
[2]; 50 μM galactose
  mode of inhibition with respect to ATP: noncompetitive
[2]
  Kmapp, substrate ATP, with ligand (+): 40.4 ± 4.7
  Vmaxapp, substrate ATP, with ligand (+): 11.8 ± 0.2
  inhibition at 2000 µM: > 50%
  Amplex Red LLEAT: 0.27 kcal/mol
[2]; [10]
  pIC50: 4.35
[2]; [11]
  pIC50: 4.60

## CCOC(=O)C1CCN(c2cnccn2)CC1 [fragment 1]
[1]; 5 mM fragment
  change in hGALK1 activity, strictly standardized mean difference (SSMD): < 0.5

## CS(=O)(=O)c1nccn1Cc1cscn1 [fragment 2]
[1]; 5 mM fragment
  change in hGALK1 activity, strictly standardized mean difference (SSMD): < 0.5

## O=C(Cc1ccc(Cl)cc1)Nc1ncccn1 [fragment 3]
[1]; 35 μM ATP
  mode of inhibition with respect to galactose: mixed
[1]
  Kmapp, substrate galactose, with ligand (+): 184.2 ± 2.1
  Vmaxapp, substrate galactose, with ligand (+): 5.1 ± 0.4
[1]; 5 mM fragment
  change in hGALK1 activity, strictly standardized mean difference (SSMD): 2.79
[1]; 5 mM fragment, single-point
  reduction of hGALK1 activity: 24 ± 1.6%
[1]; fragment 0–15 mM, 35 μM ATP
  decrease in Vmaxapp, galactose titration: 5 fold
  increase in Kmapp, galactose titration: 6 fold
[2]
  Kmapp, substrate ATP, with ligand (+): 32.1 ± 8.4
  Vmaxapp, substrate ATP, with ligand (+): 4.2 ± 0.3
[2]; fragment 0–15 mM, 50 μM galactose
  decrease in Vmaxapp, ATP titration: 4 fold

## O=C(OCc1ccc(Cl)cc1)c1cccnc1 [fragment 4]
[1]; 5 mM fragment
  change in hGALK1 activity, strictly standardized mean difference (SSMD): < 0.5

## O=C(NCCN1CCCC1=O)Nc1ccccc1 [fragment 5]
[1]; 5 mM fragment
  change in hGALK1 activity, strictly standardized mean difference (SSMD): < 0.5

## Cc1ccc(C)c(OC(=O)c2ccncc2)c1 [fragment 7]
[1]; 5 mM fragment
  change in hGALK1 activity, strictly standardized mean difference (SSMD): < 0.5

## COc1ccc(Cl)cc1C(=O)NCC(C)C [fragment 10]
[1]; 5 mM fragment
  change in hGALK1 activity, strictly standardized mean difference (SSMD): 0.80
